In brackets after ≈: the same amount, converted by molar mass.
Experiments:
[1] = system: esterase enzymes in blood serum; assay: Hydrolysis by esterase enzymes in dog blood serum (Example 5); format: in vitro ADME
Description: The following study was conducted to establish that S-cefuroxime axetil is hydrolyzed to cefuroxime acid much more rapidly by esterase enzymes in blood serum than the R-cefuroxime axetil of this invention.
Blood serum was obtained from an 11.5 kg male dog two days prior to sacrifice. The whole blood was centrifuged for fifteen minutes at 3500 rpm and 4° C. The serum thus collected was diluted with ten parts Sorenson's phosphate buffer pH 7.4.
A solution was prepared by dissolving 0.29 mg of R-cefuroxime axetil in 50 ml of Sorenson's phosphate buffer pH 7.4. Another solution was prepared by dissolving 0.26 mg of S-cefuroxime acetil in 50 ml of Sorenson's phosphate buffer pH 7.4.
Triplicate test tubes containing 2.75 ml of the R-cefuroxime axetil solution, and triplicate tubes containing 2.75 ml of the S-cefuroxime axetil solution, were each heated to 37° C. and diluted with 0.25 ml of the serum preparation from above. Aliquot portions (200 μl each) from each tube were drawn at thirty minute intervals, diluted with 100 μl of 10% aqueous trichloracetic acid, and 100 μl of acetonitrile. The samples were centrifuged at 3000 rpm for five minutes to precipitate the proteins, and then transferred to autosampler tubes for determination of cefuroxime free acid content. Analysis was conducted using a Beckman 344 gradient high performance liquid chromatography column packed with zorbox C18 reverse phase, with an eluant comprised of 40 parts methanol and 60 parts water. Standard integration of HPLC curves were carried out to convert the area to a mg/ml equivalent.

physchem = format: physicochemical; details: organic solvent or mixture
Description: The substantially pure R-cefuroxime axetil of this invention is prepared by selectively solubilizing the R-isomer in a solvent in which the S-isomer is only minimally soluble relative to the R-isomer. Solvents commonly employed are those in which the R-isomer is about six times more soluble in a given volume than the S-isomer. […] Generally, a mixture of R and S-cefuroxime axetil, prepared as described in GB 2,145,409A, and containing the R and S-isomers, is added to a solvent to form a slurry. The best results are obtained employing a solvent that provides sufficient solubility to maintain the desired volume at a minimum. Preferred solvents include alcohols such as methanol and ethanol. […] In isopropanol at 25° C., the R-isomer is 1.84 mg/ml, and the S-isomer is 0.44 mg/ml. In n-butanol at 25° C., the R-isomer is 1.0 mg/ml and the S-isomer is 0.3 mg/ml. In ethyl acetate at 25° C., the R-isomer is 13.42 mg/ml, and the S-isomer is 10.0 mg/ml.

[2] = Microbiological assay of biological potency (Example 2 product); details: product with 85% by weight R- and 15% S-cefuroxime axetil
[3] = Hydrolysis in dog gut cell (intestine) preparation (Example 6); format: in vitro ADME
Description: About 18 inches of intestine was removed from a 13 month old male dog weighing 11.5 kg. The intestine section was washed several times with Sorenson's solution, and then sliced open lengthwise. The intestine cells were collected by scraping the inner surface of the intestine with a glass microscope slide, and provided 6.10 g of cell tissue. The cell tissue was placed in 30.5 ml of Sorenson's pH 7.5 phosphate buffer. The mixture was homogenized for 30 seconds with a Tek-Mar tissuemizer. The resulting suspension was centrifuged at 4° C. at 3500 rpm for 15 minutes.
Following the general procedure of Example 2, 0.277 mg of R-cefuroxime axetil was dissolved in 50 ml of Sorenson's pH 7.4 buffer, and 0.263 mg of S-cefuroxime axetil was dissolved in 50 ml of Sorenson's pH 7.4 buffer.
Triplicate tubes of 2.75 ml of the R-cefuroxime axetil solution, and triplicate tubes of the S-cefuroxime axetil solution, were allowed to equilibrate to 37° C., and then 0.25 ml of the intestine mixture from above was added to each tube. Aliquot samples were withdrawn every 30 minutes for two hours, and each 200 μl of 10% aqueous trichloroacetic acid and 100 μl of acetonitrile. […] The assays were analyzed for unchanged R- or S-cefuroxime axetil and afforded the following results.

[4] = oral administration; cited from earlier work

Compound	half-life (in words) [1]	solubility (physchem; ethanol) [µg/mL]	solubility (physchem; ethyl acetate) [µg/mL]	solubility (physchem; isopropanol) [µg/mL]	solubility (physchem; methanol) [µg/mL]	solubility (physchem; n-butanol) [µg/mL]	biological potency [2] [%]	hydrolysis rate relative to R-cefuroxime axetil in intestinal preparations [3]	hydrolysis in the dog gut (in words) ([3]; vs R-cefuroxime axetil)	hydrolysis rate relative to R-cefuroxime axetil in blood serum [1]	hydrolysis in blood serum (in words) ([1]; vs R-cefuroxime axetil)	bioavailability of the cefuroxime antibiotic [4]
CO/N=C(\C(=O)N[C@@H]1C(=O)N2C(C(=O)O[C@H](C)OC(C)=O)=C(COC(N)=O)CS[C@H]12)c1ccco1 [R-cefuroxime axetil]	longer half-life	12000 (≈ 23.5 mM)	13400 (≈ 26.3 mM)	1840 (≈ 3.6 mM)	391000 (≈ 767 mM)	1000 (≈ 1.96 mM)	99					
CO/N=C(\C(=O)N[C@@H]1C(=O)N2C(C(=O)O[C@@H](C)OC(C)=O)=C(COC(N)=O)CS[C@H]12)c1ccco1 [S-cefuroxime axetil, reference compound]		~2980 (≈ 5.84 mM)	10000 (≈ 19.6 mM)	440 (≈ 0.862 mM)	90000 (≈ 176 mM)	300 (≈ 0.588 mM)		about 3 fold	hydrolyzed much more rapidly	about 25 fold	hydrolyzed much more rapidly	
CO/N=C(\C(=O)N[C@@H]1C(=O)N2C(C(=O)OC(C)OC(C)=O)=C(COC(N)=O)CS[C@H]12)c1ccco1 (mixture of isomers) [R,S-mixture of cefuroxime axetil, 1-acetoxyethyl ester of cefuroxime]												about fifty

Reference: patent US5063224A, “R-cefuroxime axetil” (priority 1990, dated 1991)
